By pIC50 is commonly meant −log10 of the IC50, conventionally taken in molar units.

Assay [1] has as its system endothelial tube formation in co-cultures of ECFCs and ADSCs treated with VEGF. Put plainly: cells. The assay is classed as cell-based, human.
A further assay concerns DLD-1. Nature of the assay: cells. The assay is classed as cell-based. As to conditions: for Basal_Viability ATP DLD-1 IC50/EC50: assay number 23.
The next assay deals with SW480. Put plainly: cells. The assay is classed as cell-based. Conditions: for Basal_Viability ATP SW480 IC50/EC50: assay number 24.
For another assay, the system named is HCT116. Nature of the assay: cells. The assay is classed as cell-based. Conditions: for Basal_Viability ATP HCT116 IC50/EC50: assay number 25.
For assay [2], the system named is HCT116 cells treated with a GSK3β inhibitor. Nature of the assay: cells. The assay is classed as cell-based. Conditions: for GSK3b inh pretreated_Viability ATP HCT116 IC50/EC50: assay number 26, GSK3b inhibitor pretreated.
The next assay concerns Colo320. Put plainly: cells. The assay is classed as cell-based. Conditions: for Basal_Viability ATP Colo 320 IC50/EC50: assay number 27.
The next assay concerns HT-29. Nature of the assay: cells. The assay is classed as cell-based. As to conditions: for Basal_Viability ATP HT-29 IC50/EC50: assay number 28.
The subject of another assay is RKO. Put plainly: cells. Conditions: for Basal_Viability ATP RKO IC50/EC50: assay number 29. The assay is classed as cell-based.
Another assay deals with SNU-C1. Put plainly: cells. The assay is classed as cell-based. Conditions: for Basal_Viability ATP SNU-C1 IC50/EC50: assay number 30.
Assay [3] relates to ECFC/ADSC co-culture cell nuclei number.

pIC50: −log10 of the molar value.

For the molecule `CN(C)c1ccc(C(=C2C=CC(=[N+](C)C)C=C2)c2ccccc2)cc1` [NCGC00013058-02], the negative logarithm of the IC50 (pIC50) is 7.22 in [1] (read-out: VEGF_ADSC\ECFC Angio CD31 TubeArea summarized IC50); 7.66 in the assay on DLD-1 (read-out: Basal_Viability ATP DLD-1 summarized IC50); 8.04 in the assay on SW480 (read-out: Basal_Viability ATP SW480 summarized IC50); 7.75 in the assay with HCT116 (read-out: Basal_Viability ATP HCT116 summarized IC50); 8.01 in assay [2] (read-out: GSK3b inh pretreated_Viability ATP HCT116 summarized IC50); 6.79 with Colo320 (read-out: Basal_Viability ATP Colo 320 summarized IC50). Further, the pIC50 with HT-29 (read-out: Basal_Viability ATP HT-29 summarized IC50) was 8.01; with RKO (read-out: Basal_Viability ATP RKO summarized IC50) it was 6.93; in the assay on SNU-C1 (read-out: Basal_Viability ATP SNU-C1 summarized IC50), 7.45; in assay [3] (read-out: VEGF_ADSC\ECFC Angio Hoechst NucArea summarized IC50), 5.76.

With `Cc1cccc(Nc2cc(Cl)nc(SCC(=O)O)n2)c1C` [NCGC00014702-15], the “IC50/EC50, VEGF_ADSC\ECFC Angio CD31 TubeArea (assay number 2)” value in assay [1] was greater than 10 µM. Moreover, the “IC50/EC50, Basal_Viability ATP DLD-1 (assay number 23)” value in the assay on DLD-1 (basal) is greater than 20 µM. In the assay on SW480 (basal), the “IC50/EC50, Basal_Viability ATP SW480 (assay number 24)” value is greater than 20 µM. The “IC50/EC50, Basal_Viability ATP HCT116 (assay number 25)” value in the assay on HCT116 (basal) is recorded as greater than 20 µM. Also, in assay [2] (GSK3b inh pretreated), the “IC50/EC50, GSK3b inh pretreated_Viability ATP HCT116 (assay number 26)” value was greater than 20 µM. Also, in the assay with Colo320 (basal), the “IC50/EC50, Basal_Viability ATP Colo 320 (assay number 27)” value is on record as greater than 20 µM. Besides, the “IC50/EC50, Basal_Viability ATP HT-29 (assay number 28)” value in the assay on HT-29 (basal) is reported as greater than 20 µM. Also, in the assay with RKO (basal), the “IC50/EC50, Basal_Viability ATP RKO (assay number 29)” value is greater than 20 µM. In the assay on SNU-C1 (basal), the “IC50/EC50, Basal_Viability ATP SNU-C1 (assay number 30)” value was greater than 20 µM. Also, the “IC50/EC50, VEGF_ADSC\ECFC Angio Hoechst NucArea (assay number 3)” value in [3] is greater than 10 µM.

Turning to `CCc1cccc(N(C)C(N)=Nc2cccc3ccccc23)c1.Cl` [NCGC00015236-04], the “VEGF_ADSC\ECFC Angio CD31 TubeArea IC50/EC50” value in [1] is on record as greater than 10 µM. Also, the “Basal_Viability ATP DLD-1 IC50/EC50” value in the assay on DLD-1 (basal) is reported as greater than 20 µM. Also, the “Basal_Viability ATP SW480 IC50/EC50” value in the assay on SW480 (basal) is listed as greater than 20 µM. Besides, the “GSK3b inh pretreated_Viability ATP HCT116 IC50/EC50” value in [2] is greater than 20 µM. Besides, the “Basal_Viability ATP Colo 320 IC50/EC50” value in the assay with Colo320 (basal) is greater than 20 µM. The “Basal_Viability ATP HT-29 IC50/EC50” value with HT-29 (basal) is given as greater than 20 µM. Also, in the assay on RKO (basal), the “Basal_Viability ATP RKO IC50/EC50” value is greater than 20 µM. The “Basal_Viability ATP SNU-C1 IC50/EC50” value in the assay on SNU-C1 (basal) is recorded as greater than 20 µM. In addition, in [3], the “VEGF_ADSC\ECFC Angio Hoechst NucArea IC50/EC50” value was greater than 10 µM.

Consider `CN1CCN(C2Cc3ccccc3Sc3ccc(Cl)cc32)CC1.O=C(O)/C=C\C(=O)O` (centres unmarked) [NCGC00015759-05], for which, in assay [1], the “VEGF_ADSC\ECFC Angio CD31 TubeArea IC50/EC50” value came out at 5.2302 µM. Besides, the “Basal_Viability ATP DLD-1 IC50/EC50” value with DLD-1 (basal) is recorded as greater than 20 µM. Also, in the assay with SW480 (basal), the “Basal_Viability ATP SW480 IC50/EC50” value came out at 6.3146 µM. Besides, in the assay on HCT116 (basal), the “Basal_Viability ATP HCT116 IC50/EC50” value is on record as 9.1662 µM. Moreover, the “GSK3b inh pretreated_Viability ATP HCT116 IC50/EC50” value in [2] was 8.3951 µM. Moreover, the “Basal_Viability ATP Colo 320 IC50/EC50” value with Colo320 (basal) is reported as greater than 6.6667 µM. For the same molecule, the “Basal_Viability ATP HT-29 IC50/EC50” value in the assay with HT-29 (basal) is recorded as 8.001 µM. In the assay with RKO (basal), the “Basal_Viability ATP RKO IC50/EC50” value was greater than 20 µM. In addition, the “Basal_Viability ATP SNU-C1 IC50/EC50” value in the assay on SNU-C1 (basal) is on record as 7.8734 µM. In addition, in assay [3], the “VEGF_ADSC\ECFC Angio Hoechst NucArea IC50/EC50” value is on record as greater than 10 µM.

As for `CCCn1cnc2c1c(=O)n(CCCCC(C)=O)c(=O)n2C` [NCGC00015861-09], in assay [1], the “VEGF_ADSC\ECFC Angio CD31 TubeArea IC50/EC50” value was greater than 10 µM. For the same molecule, the “Basal_Viability ATP DLD-1 IC50/EC50” value with DLD-1 (basal) was greater than 20 µM. Further, the “Basal_Viability ATP SW480 IC50/EC50” value in the assay with SW480 (basal) is on record as greater than 20 µM. Also, the “Basal_Viability ATP HCT116 IC50/EC50” value in the assay with HCT116 (basal) is on record as greater than 20 µM. Moreover, in assay [2], the “GSK3b inh pretreated_Viability ATP HCT116 IC50/EC50” value is recorded as greater than 20 µM. In addition, in the assay with Colo320 (basal), the “Basal_Viability ATP Colo 320 IC50/EC50” value was greater than 20 µM. Moreover, in the assay with HT-29 (basal), the “Basal_Viability ATP HT-29 IC50/EC50” value is listed as greater than 20 µM. Moreover, the “Basal_Viability ATP RKO IC50/EC50” value in the assay with RKO (basal) is listed as greater than 20 µM. Also, the “Basal_Viability ATP SNU-C1 IC50/EC50” value with SNU-C1 (basal) was greater than 20 µM. In addition, the “VEGF_ADSC\ECFC Angio Hoechst NucArea IC50/EC50” value in assay [3] is listed as greater than 10 µM.

With `O=C(CCCN1CCC(O)(c2cccc(C(F)(F)F)c2)CC1)c1ccc(F)cc1` [NCGC00015983-04], the “VEGF_ADSC\ECFC Angio CD31 TubeArea IC50/EC50” value in assay [1] is greater than 10 µM. In addition, in the assay with DLD-1 (basal), the “Basal_Viability ATP DLD-1 IC50/EC50” value was greater than 20 µM. In the assay on SW480 (basal), the “Basal_Viability ATP SW480 IC50/EC50” value was greater than 20 µM. Besides, the “Basal_Viability ATP HCT116 IC50/EC50” value in the assay on HCT116 (basal) is greater than 20 µM. Moreover, in assay [2], the “GSK3b inh pretreated_Viability ATP HCT116 IC50/EC50” value is greater than 20 µM. Besides, the “Basal_Viability ATP Colo 320 IC50/EC50” value with Colo320 (basal) was greater than 20 µM. For the same molecule, the “Basal_Viability ATP HT-29 IC50/EC50” value in the assay on HT-29 (basal) is greater than 20 µM. In addition, the “Basal_Viability ATP RKO IC50/EC50” value in the assay on RKO (basal) is greater than 20 µM. Moreover, the “Basal_Viability ATP SNU-C1 IC50/EC50” value in the assay with SNU-C1 (basal) is greater than 20 µM. Further, the “VEGF_ADSC\ECFC Angio Hoechst NucArea IC50/EC50” value in [3] is on record as greater than 10 µM.
